Molecules are shown by their SMILES.

By IC50 is commonly meant the midpoint of a concentration-inhibition curve. A low value points to greater potency in that assay.

In the first test the target is T1, FGFR-1 (Homo sapiens, UniProt P11362).
T1 construct: GST; made in house
T1 sequence (P11362 22-822): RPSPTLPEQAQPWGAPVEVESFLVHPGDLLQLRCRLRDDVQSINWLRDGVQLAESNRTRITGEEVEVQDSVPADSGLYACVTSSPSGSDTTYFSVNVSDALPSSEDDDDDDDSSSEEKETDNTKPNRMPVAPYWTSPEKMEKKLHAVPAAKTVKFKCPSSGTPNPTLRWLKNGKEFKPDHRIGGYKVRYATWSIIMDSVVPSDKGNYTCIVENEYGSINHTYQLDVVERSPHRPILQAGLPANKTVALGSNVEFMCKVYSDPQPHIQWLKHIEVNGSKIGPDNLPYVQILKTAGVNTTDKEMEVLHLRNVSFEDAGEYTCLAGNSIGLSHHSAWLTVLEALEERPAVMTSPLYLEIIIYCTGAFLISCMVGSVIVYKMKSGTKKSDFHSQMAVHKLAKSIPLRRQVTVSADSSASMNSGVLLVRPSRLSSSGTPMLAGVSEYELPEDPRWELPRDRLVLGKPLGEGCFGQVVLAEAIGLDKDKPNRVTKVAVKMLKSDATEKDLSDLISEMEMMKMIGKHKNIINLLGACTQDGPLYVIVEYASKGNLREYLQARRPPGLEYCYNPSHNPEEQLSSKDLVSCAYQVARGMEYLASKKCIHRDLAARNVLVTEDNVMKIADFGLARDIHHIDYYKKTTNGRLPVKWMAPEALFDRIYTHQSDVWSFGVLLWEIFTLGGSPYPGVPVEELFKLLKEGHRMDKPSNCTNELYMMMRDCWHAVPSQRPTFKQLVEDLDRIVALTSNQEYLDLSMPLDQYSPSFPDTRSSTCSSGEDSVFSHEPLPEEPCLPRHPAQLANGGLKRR
The experiment in a line: FGFR-1 TR-FRET biochemical assay. Particulars: 0.6 uM ATP, 5 nM FGFR1-GST; bounds given in nM. As to the method: FGFR-1TR-FRET Biochemical Assay
The FGFR-1 Assay was performed on half well 96-well opaque plates (Costar 3915) in a LANCE format. LANCE is a homogenous time resolved fluormetry based application available through Perkin Elmer. For this assay, 50 uL reactions were set up using: 0.6 uM ATP (Sigma), 25 nM poly GT-biotin (CIS BIO International), 2 nM Eu-labelled phospho-Tyr Ab (PY20 PerkinElmer), 10 nM Streptavidin-APC (Perkin Elmer), 5 nM FGFR1-GST (generated by DRT, Bayer Healthcare), 1% DMSO, 50 mM HEPES pH 7.5, 10 mM MgCl2, 0.1 mM EDTA, 0.015% Brij, 0.1 mg/ml BSA, 0.1% B-mercaptoethanol. All reactions were initiated with the addition of enzyme and were left to incubate for one hour at room temperature. Time-resolved fluorescence was then read on a Perkin Elmer VictorV Multilabel counter. The reading protocol uses an excitation wavelength at 340 nm and emission reads at both 615 and 665 nm. Signal was calculated as a ratio: (Flourescence at 665 nm/Flourescence at 615 nM)*10000 for each well. The background control used for this assay is the signal produced with all assay components excluding ATP. For IC50 generation, compounds were added prior to the enzyme initiation. A 50-fold stock plate was made with compounds serially diluted 1:5 in a 50% DMSO/50% dH2O solution. A 1 μL addition of the stock to the assay wells gave final compound concentrations ranging from 10 μM-0.128 nM in 1% DMSO. The data were expressed as percent inhibition: % inhibition=100−((Signal with inhibitor−background)/(Signal without inhibitor−background))*100.
In general terms: TR-FRET usually uses a lanthanide donor and a delayed reading to cut background.
Compound `Nc1ncnn2c(CN3CCOCC3)cc(-c3ccc(NC(=O)Nc4cccc(Cl)c4)c(F)c3)c12` [Example 66, N-4-[4-amino-7-(morpholin-4-ylmethyl)pyrrolo[2,1-f][1,2,4]triazin-5-yl]-2-fluorophenyl-N′-(3-chlorophenyl)urea] displayed a concentration for half-maximal inhibition (IC50) of 10 to 100 nM. In the case of `Nc1ncnn2c(CN3CCOCC3)cc(-c3ccc(NC(=O)Nc4cccc(Br)c4)c(F)c3)c12` [Example 67, N-4-[4-amino-7-(morpholin-4-ylmethyl)pyrrolo[2,1-f][1,2,4]triazin-5-yl]-2-fluorophenyl-N′-(3-bromophenyl)urea], the IC50 is less than 10 nM. The compound `CCc1cccc(NC(=O)Nc2ccc(-c3cc(CN4CCS(=O)(=O)CC4)n4ncnc(N)c34)cc2F)c1` [Example 75, N-(4-{4-amino-7-[(1,1-dioxidothiomorpholin-4-yl)methyl]pyrrolo[2,1-f][1,2,4]triazin-5-yl}-2-fluorophenyl)-N′-(3-ethylphenyl)urea] came in with an IC50 of less than 10 nM. Still for that read-out and setting: then `Nc1ncnn2c(CN3CCS(=O)(=O)CC3)cc(-c3ccc(NC(=O)Nc4cccc(C(F)(F)F)c4)c(F)c3)c12` [Example 77, N-(4-{4-amino-7-[(1,1-dioxidothiomorpholin-4-yl)methyl]pyrrolo[2,1-f][1,2,4]triazin-5-yl}-2-fluorophenyl)-N′-[3-(trifluoromethyl)phenyl]urea], with less than 10 nM; and `Nc1ncnn2c(CN3CCS(=O)(=O)CC3)cc(-c3ccc(NC(=O)Nc4cc(C(F)(F)F)ccn4)c(F)c3)c12` [Example 78, N-(4-{4-amino-7-[(1,1-dioxidothiomorpholin-4-yl)methyl]pyrrolo[2,1-f][1,2,4]triazin-5-yl}-2-fluorophenyl)-N′-[4-(trifluoromethyl)pyridin-2-yl]urea], with less than 10 nM; and `Nc1ncnn2c(CN3CCS(=O)(=O)CC3)cc(-c3ccc(NC(=O)Nc4cc(C(F)(F)F)ccc4F)c(F)c3)c12` [Example 79, N-(4-{4-amino-7-[(1,1-dioxidothiomorpholin-4-yl)methyl]pyrrolo[2,1-f][1,2,4]triazin-5-yl}-2-fluorophenyl)-N′-[2-fluoro-5-(trifluoromethyl)phenyl]urea], with less than 10 nM. Still for that read-out and setting: then `CC(C)(C)OC(=O)N1CCN(Cc2cc(-c3ccc(NC(=O)Nc4cc(C(F)(F)F)ccc4F)cc3)c3c(N)ncnn23)CC1` [Example 80, tert-butyl 4-[(4-amino-5-{4-[({[2-fluoro-5-(trifluoromethyl)phenyl]amino}carbonyl)amino]phenyl}pyrrolo[2,1-f][1,2,4]triazin-7-yl)methyl]piperazine-1-carboxylate], with greater than 100 nM; and `Nc1ncnn2c(CN3CCNCC3)cc(-c3ccc(NC(=O)Nc4cc(C(F)(F)F)ccc4F)cc3)c12` [Example 81, N-4-[4-amino-7-(piperazin-1-ylmethyl)pyrrolo[2,1-f][1,2,4]triazin-5-yl]phenyl-N′-[2-fluoro-5-(trifluoromethyl)phenyl]urea], with less than 10 nM.

For `CC(C)(C)OC(=O)N1CCN(Cc2cc(-c3ccc(NC(=O)Nc4cc(C(F)(F)F)ccc4F)c(F)c3)c3c(N)ncnn23)CC1` [Example 82, tert-butyl 4-[(4-amino-5-{3-fluoro-4-[({[2-fluoro-5-(trifluoromethyl)phenyl]amino}carbonyl)amino]phenyl}pyrrolo[2,1-f][1,2,4]triazin-7-yl)methyl]piperazine-1-carboxylate], the IC50 was 10 to 100 nM. Still for that read-out and setting: then `CCS(=O)(=O)N1CCN(Cc2cc(-c3ccc(NC(=O)Nc4cc(C(F)(F)F)ccc4F)cc3)c3c(N)ncnn23)CC1` [Example 84, N-[4-(4-amino-7-{[4-(ethylsulfonyl)piperazin-1-yl]methyl}pyrrolo[2,1-f][1,2,4]triazin-5-yl)phenyl]-N′-[2-fluoro-5-(trifluoromethyl)phenyl]urea], with 10 to 100 nM; and `CC(C)S(=O)(=O)N1CCN(Cc2cc(-c3ccc(NC(=O)Nc4cc(C(F)(F)F)ccc4F)cc3)c3c(N)ncnn23)CC1` [Example 85, N-[4-(4-amino-7-{[4(isopropylsulfonyl)piperazin-1-yl]methyl}pyrrolo[2,1-f][1,2,4]triazin-5-yl)phenyl]-N′-[2-fluoro-5-(trifluoromethyl)phenyl]urea], with 10 to 100 nM. The compound `Nc1ncnn2c(CN3CCN(S(=O)(=O)CC(F)(F)F)CC3)cc(-c3ccc(NC(=O)Nc4cc(C(F)(F)F)ccc4F)cc3)c12` [Example 86, N-{4-[4-amino-7-({4-[(2,2,2-trifluoroethyl)sulfonyl]piperazin-1-yl}methyl)pyrrolo[2,1-f][1,2,4]triazin-5-yl]phenyl}-N′-[2-fluoro-5-(trifluoromethyl)phenyl]urea] showed an IC50 of 10 to 100 nM. The compound `CC(=O)N1CCN(Cc2cc(-c3ccc(NC(=O)Nc4cc(C(F)(F)F)ccc4F)c(F)c3)c3c(N)ncnn23)CC1` [Example 89, N-(4-{7-[(4-acetylpiperazin-1-yl)methyl]-4-aminopyrrolo[2,1-f][1,2,4]triazin-5-yl}-2-fluorophenyl)-N′-[2-fluoro-5-(trifluoromethyl)phenyl]urea] returned a half-maximal inhibitory concentration (IC50) of less than 10 nM. `CC(=O)c1cc(-c2ccc(NC(=O)Nc3cc(C(F)(F)F)ccc3F)cc2)c2c(N)ncnn12` [Example 100, N-[4-(7-acetyl-4-aminopyrrolo[2,1-f][1,2,4]triazin-5-yl)phenyl]-N′-[2-fluoro-5-(trifluoromethyl)phenyl]urea] showed an IC50 of 10 to 100 nM.

`Nc1ncnn2c(C(=O)CN3CCOCC3)cc(-c3ccc(NC(=O)Nc4cc(C(F)(F)F)ccc4F)cc3)c12` [Example 103, N-{4-[4-amino-7-(morpholin-4-ylacetyl)pyrrolo[2,1-f][1,2,4]triazin-5-yl]phenyl}-N′-[2-fluoro-5-(trifluoromethyl)-phenyl]urea] showed an IC50 of 10 to 100 nM. In turn, `CC(C)(O)c1cc(-c2ccc(NC(=O)Nc3cc(C(F)(F)F)ccc3F)cc2)c2c(N)ncnn12` [Example 104, N-{4-[4-amino-7-(1-hydroxy-1-methylethyl)pyrrolo[2,1-f][1,2,4]triazin-5-yl]phenyl}-N′-[2-fluoro-5-(trifluoromethyl)phenyl]urea] registered an IC50 of 10 to 100 nM.

In the case of `Nc1ncnn2c(CCCN3CCOCC3)cc(-c3ccc(NC(=O)Nc4cc(C(F)(F)F)ccn4)cc3)c12` [Example 107, N-{4-[4-amino-7-(3-morpholin-4-ylpropyl)pyrrolo[2,1-f][1,2,4]triazin-5-yl]phenyl}-N′-[4-(trifluoromethyl)pyridin-2-yl]urea], the half-maximal inhibitory concentration (IC50) was less than 10 nM. The same measure, in the same setting: then `Nc1ncnn2c(CCCN3CCOCC3)cc(-c3ccc(NC(=O)Nc4cc(C(F)(F)F)ccc4F)cc3)c12` [Example 108, N-{4-[4-amino-7-(3-morpholin-4-ylpropyl)pyrrolo[2,1-f][1,2,4]triazin-5-yl]phenyl}-N′-[2-fluoro-5-(trifluoromethyl)phenyl]urea], with less than 10 nM. Still for that read-out and setting: then `Nc1ncnn2c(CCCN3CCOCC3)cc(-c3ccc(NC(=O)Nc4cc(C(F)(F)F)ccc4F)c(F)c3)c12` [Example 109, N-{4-[4-amino-7-(3-morpholin-4-ylpropyl)pyrrolo[2,1-f][1,2,4]triazin-5-yl]-2-fluorophenyl}-N′-[2-fluoro-5-(trifluoromethyl)phenyl]urea], with less than 10 nM; and `Nc1ncnn2c(C3CCNCC3)cc(-c3ccc(NC(=O)Nc4cc(C(F)(F)F)ccc4F)c(F)c3)c12` [Example 111, N-[4-(4-amino-7-piperidin-4-ylpyrrolo[2,1-f][1,2,4]-triazin-5-yl)-2-fluorophenyl]-N′-[2-fluoro-5-(trifluoromethyl)phenyl]urea], with less than 10 nM. `Nc1ncnn2c(C3CCN(C(=O)C(F)(F)F)CC3)cc(-c3ccc(NC(=O)Nc4cc(C(F)(F)F)ccc4F)c(F)c3)c12` [Example 112, N-(4-4-amino-7-[1-(trifluoroacetyl)piperidin-4-yl]pyrrolo[2,1-f][1,2,4]triazin-5-yl-2-fluorophenyl)-N′-[2-fluoro-5-(trifluoromethyl)-phenyl]urea] registered a half-inhibitory concentration (IC50) greater than 100 nM. In turn, `CN1CCC(c2cc(-c3ccc(NC(=O)Nc4cc(C(F)(F)F)ccc4F)c(F)c3)c3c(N)ncnn23)CC1` [Example 113, N-4-[4-amino-7-(1-methylpiperidin-4-yl)pyrrolo[2,1-f][1,2,4]triazin-5-yl]-2-fluorophenyl-N′-[2-fluoro-5-(trifluoromethyl)phenyl]urea] showed an IC50 of less than 10 nM. Same read-out and setting: then `Nc1ncnn2c(C3CCN(C(=O)CO)CC3)cc(-c3ccc(NC(=O)Nc4cc(C(F)(F)F)ccc4F)c(F)c3)c12` [Example 114, N-4-[4-amino-7-(1-glycoloylpiperidin-4-yl)pyrrolo[2,1-f][1,2,4]triazin-5-yl]-2-fluorophenyl-N′-[2-fluoro-5-(trifluoromethyl)phenyl]urea], with less than 10 nM; and `Nc1ncnn2c(C3CCN(C(=O)CN4CCOCC4)CC3)cc(-c3ccc(NC(=O)Nc4cc(C(F)(F)F)ccc4F)c(F)c3)c12` [Example 115, N-(4-4-amino-7-[1-(morpholin-4-ylacetyl)piperidin-4-yl]pyrrolo[2,1-f][1,2,4]triazin-5-yl-2-fluorophenyl)-N′-[2-fluoro-5-(trifluoromethyl)-phenyl]urea], with 10 to 100 nM.

The same test, now with this note: upper bound of the bin 'greater than 100 nM but less than 1 μM' (lower bound in E1).
For `CC(C)(C)OC(=O)N1CCN(Cc2cc(-c3ccc(NC(=O)Nc4cc(C(F)(F)F)ccc4F)cc3)c3c(N)ncnn23)CC1` [Example 80, tert-butyl 4-[(4-amino-5-{4-[({[2-fluoro-5-(trifluoromethyl)phenyl]amino}carbonyl)amino]phenyl}pyrrolo[2,1-f][1,2,4]triazin-7-yl)methyl]piperazine-1-carboxylate], the IC50 was less than 1000 nM. For `Nc1ncnn2c(C3CCN(C(=O)C(F)(F)F)CC3)cc(-c3ccc(NC(=O)Nc4cc(C(F)(F)F)ccc4F)c(F)c3)c12` [Example 112, N-(4-4-amino-7-[1-(trifluoroacetyl)piperidin-4-yl]pyrrolo[2,1-f][1,2,4]triazin-5-yl-2-fluorophenyl)-N′-[2-fluoro-5-(trifluoromethyl)-phenyl]urea], the IC50 was less than 1000 nM.
